Assay results from patent publication US20230277698A1, “SILICON-CONTAINING LIGAND COMPOUNDS” (Technische Universität München, priority 2020, published 2023).

What was measured:
[1] = system: LNCaP tumor-bearing CB17-SCID mice; assay: Biodistribution studies 24 h p.i.; type: in vivo; settings: 177Lu-labelled, mean±SD, n=4-5
Procedure: All animal experiments were conducted in accordance with general animal welfare regulations in Germany (German animal protection act, as amended on 18 May 2018, Art. 141 G v. 29.3.2017|626, approval no. 55.2-1-54-2532-71-13) and the institutional guidelines for the care and use of animals. To establish tumor xenografts, LNCaP cells (approx. 10^7 cells) were suspended in 200 μL of a 1:1 mixture (v/v) of DMEM F-12 and Matrigel (BD Biosciences, Germany), and inoculated subcutaneously onto the right shoulder of 6-8 weeks old CB17-SCID mice (Charles River, Sulzfeld, Germany). Mice were used for experiments when tumors had grown to a diameter of 5-10 mm (3-6 weeks after inoculation).
Approximately 5-10 MBq (0.1-0.2 nmol) of the radioactive-labelled PSMA inhibitors were injected into the tail vein of LNCaP tumor-bearing male CB-17 SCID mice and sacrificed after 24 h post injection. Selected organs were removed, weighted and measured in a γ-counter.
FIG. 10 and the following table show the biodistribution data 24 h p.i. of ^177Lu-labeled compounds in LNCaP tumor-bearing CB17-SCID mice. Data are expressed as mean±SD (n=4-5).

[2] = molecular target: human serum albumin (HSA) (Homo sapiens, UniProt P02768); assay: HSA binding by radio inversed affinity chromatography (RIAC); type: in vitro ADME; settings: 177Lu-labelled; Superdex 75 Increase 10/300 GL, 700 μM HSA in PBS, 0.8 mL/min
Chain of human serum albumin (HSA) (P02768 25-609): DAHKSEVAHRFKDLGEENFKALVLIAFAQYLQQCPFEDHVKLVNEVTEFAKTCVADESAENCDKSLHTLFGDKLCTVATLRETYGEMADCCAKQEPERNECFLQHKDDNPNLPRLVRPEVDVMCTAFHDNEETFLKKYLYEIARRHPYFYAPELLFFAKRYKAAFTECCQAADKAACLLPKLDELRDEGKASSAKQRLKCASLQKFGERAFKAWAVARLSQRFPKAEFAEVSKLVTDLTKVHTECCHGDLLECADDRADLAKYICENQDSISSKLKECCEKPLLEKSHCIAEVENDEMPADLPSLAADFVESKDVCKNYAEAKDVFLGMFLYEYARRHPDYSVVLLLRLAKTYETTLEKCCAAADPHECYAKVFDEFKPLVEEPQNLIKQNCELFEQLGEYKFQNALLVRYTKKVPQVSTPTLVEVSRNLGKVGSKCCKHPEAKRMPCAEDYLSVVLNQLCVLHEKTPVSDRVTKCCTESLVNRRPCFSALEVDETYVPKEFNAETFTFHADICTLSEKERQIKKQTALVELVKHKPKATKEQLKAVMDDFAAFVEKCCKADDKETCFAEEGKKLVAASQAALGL
Procedure: A gel filtration column Superdex 75 Increase 10/300 GL (GE Healthcare, Uppsala, Sweden) was beforehand calibrated following the producer's recommendations with a commercially available gel filtration calibration kit (GE Healthcare, Buckinghamshire, UK) comprising conalbumin (MW: 75 kDa), ovalbumin (44 kDa), carbonic anhydrase (29 kDa), ribonuclease A (13.7 kDa) and aprotinin (6.5 kDa) as reference proteins of known molecular weight. RIAC experiments were conducted using a constant flow rate of 0.8 mL/min at rt. A solution of HSA in PBS at physiological concentration (700 μM) was used as the mobile phase. PSMA ligands were labelled as described with molar activities of 10-20 GBq/μmol. Probes of 1.0 MBq of the radioligand were injected directly from the labelling solution. HSA binding was expressed as an apparent molecular weight MW calculated from the retention time of the radioligand using the determined calibration curve.
The following table summarizes the underlying data. MW: molecular weight. tR: experimentally determined retention time. V: elution volume. Kav: partition coefficient.
RIAC, in an inversed way, comprises ligand samples (radiolabeled PSMA ligands) and a protein (HSA) containing mobile phase. Ligand-specific retention is caused by interaction of the ligand probe and HSA in the mobile phase. Unbound species, due to a molecular weight beneath the molecular cut off of the gel filtration column, are maximally retained while bound species are eluted in accordance to the higher molecular weight of the ligand-HSA-complex (MWHSA: 66.47 kDa). Experiments show a single radiopeak indicating a dynamic process of formation and dissociation of the ligand-HSA-complex throughout the passage through the column bed. Accordingly, the absolute retention time is the result of the ligand's mean time of abidance at HSA which is directly defined by the ligand's binding kinetics and affinity toward HSA. For evaluation, experimentally determined retention times tR are first converted into elution volumes Ve by multiplying with the flow rate and thereafter converted into partition coefficients Kav following the equation
where V0 is the column void volume (8.027 mL) and Vc is the geometric column volume (24 mL). Using the equation given by the trend line plot of the column calibration
the apparent molecular weight MW is calculated as
FIG. 7 and the table below show the results HSA-binding of lutetium-complexed PSMA-ligands and reference compounds determined by RIAC on a Superdex 75 Increase 10/300 GL column 700 μM HSA in PBS as solvent using a constant flow rate of 0.8 mL/min (plotted data, extracted from FIG. 8).
FIG. 8 illustrates the determination of HSA binding via radio inverse affinity chromatography (RIAC). Correlation of apparent molecular weight (MW) in Dalton (Da) and retention time of ^177Lu-labeled samples, determined on a Superdex 75 Increase 10/300 GL with 700 μM HSA in PBS as solvent using a constant flow rate of 0.8 mL/min.

[3] = system: LNCaP cells; assay: Internalization studies on LNCaP cells; type: cell-based; settings: 177Lu-labelled, c=1.0 nM, 1 hour, 37 °C; % of reference ligand ([125I]I-BA)KuE (c=0.2 nM); corrected for non-specific binding (PMPA); mean±SD, n=3-6
Procedure: PSMA-positive LNCAP cells (300265; Cell Lines Service, Eppelheim, Germany) were cultivated in Dulbecco modified Eagle medium/Nutrition Mixture F-12 with Glutamax (1:1) (DMEM-F12, Biochrom, Berlin, Germany) supplemented with fetal bovine serum (10%, FBS Zellkultur, Berlin, Germany) and kept at 37° C. in a humidified CO2 atmosphere (5%). A mixture of trypsin and EDTA (0.05%, 0.02%) in PBS (Biochrom) was used in order to harvest cells. Cells were counted with a Neubauer hemocytometer (Paul Marienfeld, Lauda-Königshofen, Germany).
For internalization studies, LNCaP cells were harvested 24±2 hours before the experiment and seeded in poly-L-lysine coated 24-well plates (1.25×10^5 cells in 1 mL/well, Greiner Bio-One, Kremsmünster, Austria). After removal of the culture medium, the cells were washed once with 500 μL DMEM-F12 (5% BSA) and left to equilibrate for at least 15 min at 37° C. in 200 μL DMEM-F12 (5% BSA). Each well was treated with either 25 μL of either DMEM-F12 (5% BSA, control) or 25 μL of a 100 μM PMPA (2-(Phosphonomethyl)-pentandioic acid, Tocris Bioscience, Bristol, UK) solution in PBS, for blockade. Next, 25 μL of the radioactive-labelled PSMA inhibitor (10.0 nM in PBS) was added and the cells were incubated at 37° C. for 60 min. The experiment was terminated by placing the 24-well plate on ice for 3 min and consecutive removal of the medium. Each well was carefully washed with 250 μL of ice-cold HBSS. Both fractions from the first steps, representing the amount of free radioligand, were combined. Removal of surface bound activity was accomplished by incubation of the cells with 250 μL of ice-cold PMPA (10 μM in PBS) solution for 5 min and rinsed again with another 250 μL of ice-cold PBS. The internalized activity was determined by incubation of the cells in 250 μL 1 M aqueous NaOH for at least 10 min. The obtained fractions were combined with those of the subsequent wash step with 250 μL 1 M aqueous NaOH. Each experiment (control and blockade) was performed in triplicate. Free, surface bound and internalized activity was quantified in a γ-counter. All internalization studies were accompanied by external reference studies, using ([^125I]l-BA)KuE (c=0.2 nM), which were performed analogously. Data were corrected for non-specific binding and normalized to the specific-internalization observed for the radioiodinated reference compound.
Data is corrected for non-specific binding (10 μmol PMPA) and expressed as mean±SD (n=3-6): […]

With `O=C(O)CC[C@H](NC(=O)N[C@@H](CCCCNC(=O)CCCCCCC(=O)NCCCC[C@@H](NC(=O)[C@@H](Cc1ccccc1)NC(=O)[C@@H](Cc1ccc(O)c(I)c1)NC(=O)CCC(C(=O)O)N1CCN(CC(=O)O)CCN(CC(=O)O)CCN(CC(=O)O)CC1)C(=O)O)C(=O)O)C(=O)O` (stereo partly drawn) [PSMA I&T, reference compound] the “biodistribution: tumor” value ([1]; LNCaP xenograft) was 4.1 ± 1.1 % ID/g, the “biodistribution: blood” value ([1]; i.v. tail vein) was 0.012 ± 0.01 % ID/g and the “biodistribution: adrenals” value [1] was 1.06 ± 0.24 % ID/g. For the same compound, the “biodistribution: bone” value [1] was 0.01 ± 0.01 % ID/g, the “biodistribution: heart” value [1] was 0.05 ± 0.03 % ID/g and the “biodistribution: intestine” value [1] was 0.12 ± 0.06 % ID/g. For the same compound, the “biodistribution: kidneys” value [1] was 34.7 ± 17.2 % ID/g, the “biodistribution: liver” value [1] was 0.05 ± 0.01 % ID/g and the “biodistribution: lung” value [1] was 0.16 ± 0.03 % ID/g. For the same compound, the “biodistribution: muscle” value [1] was 0.01 ± 0.01 % ID/g, the “biodistribution: pancreas” value [1] was 0.05 ± 0.02 % ID/g and the “biodistribution: spleen” value [1] was 1.94 ± 1.01 % ID/g. For the same compound, the “biodistribution: stomach” value [1] was 0.05 ± 0.02 % ID/g, the “HSA-binding RIAC (apparent molecular weight)” value [2] was 5.3 kDa and the “Internalization (% IBA)” value [3] was 76 ± 2 % IBA.
